Source: paper PMC8708872, “Discovery of a Novel Template, 7-Substituted 7-Deaza-4′-Thioadenosine Derivatives as Multi-Kinase Inhibitors” (Pharmaceuticals, 2021)

Key:
[1] = target: T1, CYP2C19 (Homo sapiens, UniProt P33261); experiment: CYP inhibition assay; format: in vitro ADME; conditions: human, human liver microsomes, pH 7.4, probe S-mephenytoin 100 μM (in a cocktail of five substrates); inhibitor 0.1 μM; read-out: Percentage of enzyme remaining after inhibition, CYP2C19
T1 construct: Human liver microsomes (0.25 mg/mL); from tissue; host or cells: human liver microsomes
Procedure: (§1) Human liver microsomes (0.25 mg/mL), 0.1 M phosphate buffer (pH 7.4), a cocktail of five […] substrates (Phenacetin 50 μM, Diclofenac 10 μM, S-mephenytoin 100 μM, Dextromethorphan 5 μM, Midazolam 2.5 μM), and test compound (10 μM concentration) was pre-incubated for 5 min at 37 °C. NADPH generation system solution was added and incubated for 15 min at 37 °C. In order to terminate the reaction, acetonitrile solution containing an internal standard (Terfenadine) was added and centrifuged for 5 min (14,000× g […], 4 °C). The supernatant was injected into the LC-MS/MS system to analyze the metabolites of the substrates simultaneously. Metabolites of each substrate produced during the reaction were analyzed using the Shimadzu Nexera XR system and TSQ vantage (Thermo). Kinetex C18 column (2.1 × 100 mm, 2.6 μm particle size; Phenomenex, USA) was used for HPLC. The mobile phase used contained 0.1% formic acid in distilled water (A) and 0.1% formic acid containing acetonitrile (B). The generated metabolites were quantified using MRM (Multiple Reaction Monitoring) and Xcalibur (version 1.6.1) was used for data analysis.

[2] = target: T2, CYP2C9 (Homo sapiens, UniProt P11712); experiment: CYP inhibition assay; format: in vitro ADME; conditions: human, human liver microsomes, pH 7.4, probe Diclofenac 10 μM (in a cocktail of five substrates); inhibitor 0.1 μM; read-out: Percentage of enzyme remaining after inhibition, CYP2C9
T2 construct: Human liver microsomes (0.25 mg/mL); from tissue; host or cells: human liver microsomes
Procedure: as §1

[3] = target: T3, CYP1A2 (Homo sapiens, UniProt P05177); experiment: CYP inhibition assay; format: in vitro ADME; conditions: human, human liver microsomes, pH 7.4, probe Phenacetin 50 μM (in a cocktail of five substrates); inhibitor 0.1 μM; read-out: Percentage of enzyme remaining after inhibition, CYP1A2
T3 construct: Human liver microsomes (0.25 mg/mL); from tissue; host or cells: human liver microsomes
Procedure: as §1

[4] = test system: KM12; experiment: Antiproliferative activity against KM12; format: cell-based; conditions: Homo sapiens, colon cancer cell line highly expressing NTRK1/2/3 and DYRK3, read-out: IC50 cell growth of KM12
[5] = test system: ACHN; experiment: Antiproliferative activity against ACHN; format: cell-based; conditions: Homo sapiens, renal cancer cell line expressing CK1δ and DYRK2, read-out: IC50 cell growth of ACHN

T3 sequence (P05177 whole entry): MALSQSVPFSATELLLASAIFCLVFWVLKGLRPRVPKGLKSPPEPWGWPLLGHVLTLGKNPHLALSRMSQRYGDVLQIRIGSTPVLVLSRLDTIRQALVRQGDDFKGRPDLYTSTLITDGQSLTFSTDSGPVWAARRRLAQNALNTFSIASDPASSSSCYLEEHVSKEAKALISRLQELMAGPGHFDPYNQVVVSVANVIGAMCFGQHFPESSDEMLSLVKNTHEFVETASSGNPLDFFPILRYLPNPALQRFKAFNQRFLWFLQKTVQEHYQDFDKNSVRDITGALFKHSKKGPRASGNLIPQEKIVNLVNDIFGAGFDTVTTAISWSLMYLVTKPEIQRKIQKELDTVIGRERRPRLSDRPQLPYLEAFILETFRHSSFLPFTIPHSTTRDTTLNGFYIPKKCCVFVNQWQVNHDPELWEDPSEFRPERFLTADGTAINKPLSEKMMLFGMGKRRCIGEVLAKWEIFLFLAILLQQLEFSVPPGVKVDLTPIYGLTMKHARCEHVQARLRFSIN
T1 sequence (P33261 whole entry): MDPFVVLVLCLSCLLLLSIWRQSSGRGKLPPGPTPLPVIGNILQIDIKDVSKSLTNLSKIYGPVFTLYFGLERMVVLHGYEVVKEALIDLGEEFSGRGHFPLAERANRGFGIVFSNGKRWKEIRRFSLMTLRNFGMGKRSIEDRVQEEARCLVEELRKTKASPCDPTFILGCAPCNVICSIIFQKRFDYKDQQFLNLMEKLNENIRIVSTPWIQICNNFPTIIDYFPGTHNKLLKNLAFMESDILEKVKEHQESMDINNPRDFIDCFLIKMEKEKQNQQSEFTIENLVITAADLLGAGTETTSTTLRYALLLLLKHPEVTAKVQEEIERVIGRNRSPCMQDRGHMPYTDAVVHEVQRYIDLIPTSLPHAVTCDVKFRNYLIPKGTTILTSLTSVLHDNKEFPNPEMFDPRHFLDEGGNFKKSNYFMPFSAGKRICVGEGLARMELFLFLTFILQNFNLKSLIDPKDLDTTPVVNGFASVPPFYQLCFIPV
T2 sequence (P11712 whole entry): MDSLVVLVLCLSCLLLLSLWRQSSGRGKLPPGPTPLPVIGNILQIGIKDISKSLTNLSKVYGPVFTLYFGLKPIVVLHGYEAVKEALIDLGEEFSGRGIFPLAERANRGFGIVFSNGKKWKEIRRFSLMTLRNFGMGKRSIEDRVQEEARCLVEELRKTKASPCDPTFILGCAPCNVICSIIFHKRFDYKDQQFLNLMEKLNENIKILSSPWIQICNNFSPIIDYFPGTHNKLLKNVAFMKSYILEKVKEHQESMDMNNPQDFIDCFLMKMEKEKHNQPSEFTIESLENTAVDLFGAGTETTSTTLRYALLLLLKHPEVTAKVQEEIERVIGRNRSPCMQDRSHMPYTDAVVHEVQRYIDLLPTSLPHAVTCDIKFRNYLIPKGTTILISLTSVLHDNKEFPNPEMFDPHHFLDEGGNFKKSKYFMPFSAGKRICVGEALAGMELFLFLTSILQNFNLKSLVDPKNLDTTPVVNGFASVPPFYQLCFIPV

| remaining at 15 min, 0.1 μM [1] | remaining at 15 min, 0.1 μM [2] | remaining at 15 min, 0.1 μM [3] | IC50 [5] | Compound | IC50 [4] |
| --- | --- | --- | --- | --- | --- |
| 93.6% | 93.6% | 95.7% |  | CC(=O)N1CCN(c2ccc(OCC3COC(Cn4ccnc4)(c4ccc(Cl)cc4Cl)O3)cc2)CC1 (centres unmarked) [Ketoconazole, reference compound] |  |
|  |  |  | 40 nM | COc1cccc2c1C(=O)c1c(O)c3c(c(O)c1C2=O)C[C@@](O)(C(=O)CO)C[C@@H]3O[C@H]1C[C@H](N)[C@H](O)[C@H](C)O1 [doxorubicin, reference compound] | 120 nM |
